Experimental data reported in patent US20250161422A1, “ARGINASE 2 VACCINE” (IO Biotech ApS, priority 2022, published 2025).

How the values were obtained:
[1] = test system: HLA-A1+, HLA-C7+ or HLA-B8+ cancer cell lines (FM6, FM28, FM82, OCI-M2); assay: IFNγ ELISPOT of A2S05-specific T cells with peptide-pulsed cancer cell lines; type: cell-based, human; settings: for IFNγ ELISPOT reactivity of A2S05-specific T cells to peptide-pulsed HLA-B8+ FM6: metastatic malignant melanoma cell line FM6
Protocol: Peptide-specific IFNγ secreting cells were calculated by subtracting the average spot count in control wells from the average spot count in peptide-stimulated wells. ELISPOT assays with ARG2-specific T cells (effector cells) and various immune cells or cancer cells as target cells were set up by adding 3×10^4-5×10^4 effector cells to ELISPOT wells followed by 5×10^3-10^4 target cells. Peptide pulsing was performed by incubating the target cells with 20 μM peptide for 1 hour, followed by two washes to remove unbound peptide. Effector cells with added peptide served as the positive control and target cells plated without […] as the negative control. In ELISPOTs assays with immune cells as target cells, wells containing only effector cells were also included as controls. The average spot count from replicate wells was subtracted from the spot count of effector cells plated with the respective target cells.
(§1) ARG2-specific T-cell cultures were obtained by stimulation of PBMCs with ARG2-S05 peptide, followed by low-dose IL-2 (120 U/mL) the next day. At 12 days after peptide stimulation, the cells were re-stimulated with peptide, and IFNγ-secreting cells were isolated using magnetic beads. Next, these cells were expanded using a rapid expansion protocol, including feeder cells, CD3 antibody, and high-dose IL-2 (3000-6000 U/mL). On day 16-17, culture specificity was determined by stimulation with ARG2-S05 peptide and determination of the cytokine release by ICS.
FM6 was confirmed to be HLA-B8^+ by flow cytometry and confirmed to express ARG2 by RT-qPCR (FIG. 6).

[2] = test system: splenocytes of vaccinated mice; assay: Murine IFNγ ELISPOT on splenocytes; type: in vivo, C57BL/6 mice; settings: splenocytes of ARG2-vaccinated Pan02 mice plated with ARG1 peptide
Protocol: The purity of all synthesized peptides was >90%.
Mice were sacrificed at endpoint for tumor studies and one week after the last vaccination for the remaining studies. Spleens were harvested, smashed through a 70 μm filter, and red blood cells were lysed with Red Blood Cell Lysis Solution (Qiagen). 8×10^5 splenocytes were plated per well in IFNγ ELISPOT plates. IFNγ ELISPOT was performed as previously described. Tumors were harvested, cut into smaller pieces and enzymatically digested in RPMI medium containing 2.1 mg/ml collagenase type 1 (Worthington), 75 μg/ml DNase I (Worthington), 5 mM CaCl2, and 1% P/S. Cells were filtered through a 70 μm cell strainer and red blood cells were lysed as described above. CD45+tumor infiltrating lymphocytes (TILs) were isolated from tumor single-cell suspensions with CD45 microbeads (for MC38 and LL2 tumors) (Miltenyi Biotec) or with CD45 (TIL) microbeads (for B16-F10 tumors) (Miltenyi Biotec). The isolated CD45+ cells were rested overnight. 5×10^5 CD45+ cells were plated per well in IFNγ ELISPOT plates. For phenotyping ARG2 responses, CD8+ and CD4^+ T cells were isolated from the spleen of vaccinated mice with CD8a (Ly-2) and CD4 (L3T4) microbeads (Miltenyi Biotec), respectively, following manufacturer's instruction. Isolated T cells were rested overnight. […]

[3] = test system: murine model of lung cancer; settings: previously shown by the inventors; cited from earlier work
[4] = test system: splenocytes of vaccinated mice; settings: previously identified by the inventors; cited from earlier work
[5] = test system: PBMCs / peptide-specific T-cell cultures; assay: Intracellular cytokine staining for TNFα and IFNγ; type: cell-based, human; settings: for T-cell subset that responds (ICS for TNFα and IFNγ): peptide-stimulated healthy donor PBMCs
Protocol: PBMCs were in vitro stimulated with peptide as described above. At 10-14 days post-simulation, the cells were used for intracellular cytokine staining. […] After a 4-hour incubation period, the cells were washed and stained for the extracellular markers CD3-APC/H7, CD4-FITC, and CD8-PerCP, and dead cells were stained with FVS-510. Next, the cells were permeabilized using Fixation/Permeabilization buffer (Invitrogen), followed by staining with IFNγ-APC and TNFα-BV421. Data were acquired using a BD Canto II flow cytometer and analyzed using FlowJo.
as §1
To further characterize the ARG2-specific CD8^+ T cells, A2S05-specific T-cell cultures from four donors were established. Briefly, donor PBMCs were stimulated with A2S05 in vitro. 12 days later, peptide-specific T cells were re-stimulated and isolated using an IFNγ capture kit. IFNγ-producing cells were expanded using a rapid expansion protocol and the specificity was examined at 16-17 days after expansion by ICS for IFNγ and TNF.

[6] = test system: PBMCs from healthy donors or cancer patients; assay: In vitro peptide stimulation of PBMCs and IFNγ ELISPOT; type: cell-based, human; settings: for IFNγ ELISPOT response, screening: PBMCs of five healthy HLA-A2+ donors, restimulated after 12-14 days; for IFNγ ELISPOT response, validation (repetition): healthy donors, repeat ELISPOT (FIG. 5); for IFNγ ELISPOT response in 17 HDs: 17 healthy donors of undetermined HLA-type
Protocol: PBMCs from healthy donors or cancer patients were subjected to in vitro stimulation with ARG2-derived peptides by plating the cells with 10 μM peptide. The following day, the cells received low-dose IL-2 (120 U/ml) treatment. At 10-14 days after peptide stimulation, the cells were used for IFNγ ELISPOT. ELISPOT plates were coated with […] IFNγ capture antibody (MabTech) overnight. The next day, the plates were washed and blocked in X-vivo media followed by the plating of 2.5-3.5×10^5 PBMCs per well for ELISPOT, with and without restimulation with 5 μM peptide. A minimum of triplicate wells were set up pr. condition. The cells were incubated 14-16 hours before they were washed and a biotin-conjugated secondary antibody (Mabtech) was added, followed by a 2-hour incubation. Next, the cells were washed again, followed by incubation with streptavidin-conjugated alkaline phosphatase (Mabtech) for 1 hour. Finally, spots were developed by addition of BCIP/NBT substrate (Mabtech). Tap water was used to stop the reaction. Spots corresponding to IFNγ secretion were quantified by visualization on a CTL ImmunoSpot S6 Ultimate-V analyzer with ImmunoSpot software version 5.1. Peptide-specific IFNγ secreting cells were calculated by subtracting the average spot count in control wells from the average spot count in peptide-stimulated wells. […] Peptide pulsing was performed by incubating the target cells with 20 μM peptide for 1 hour, followed by two washes to remove unbound peptide. Effector cells with added peptide served as the positive control and […] plated without […] as the negative control. In ELISPOTs assays with immune cells as target cells, wells containing only effector cells were also included as controls. The average spot count from replicate wells was subtracted from the spot count of effector cells plated with the respective target cells. These 15 peptides ([…] to […]) were screened in peripheral blood mononuclear cells (PBMCs) from five healthy donors (HD), who were confirmed to be HLA-A2 positive (HLA-A2^+). PBMCs were stimulated with each peptide in vitro and restimulated in IFNγ ELISPOT after 12-14 days of culture.

PBMCs = assay: Ex vivo IFNγ ELISPOT; type: cell-based, human; settings: donors with strong in vitro responses
Protocol: PBMCs were thawed and rested overnight. The next day, 9×10^5 cells were plated pr. well. Control and peptide stimulations were performed in at least triplicate. The rest of the protocol was performed as described above.

In the case of “QIVKNPRSV (listed as Homo sapiens) [ARG1_65-73, reference compound]”, the “IFNγ ELISPOT reactivity of A2S05-specific T cells to peptide-pulsed HLA-B8+ FM6” value [1] is reported as “lack of reactivity”.
With “ISAKDIVYI (listed as Mus musculus) [mARG1_169-177, murine ARG1 peptide from the corresponding region, control for specific recognition]” the “cross-reactivity of vaccine-induced responses to ARG1 peptide” value [2] was “no cross-reactivity”.
For “LSPPNIVYI (listed as Mus musculus) [mARG2_188-196]”, the “tumor growth in murine model of lung cancer” value [3] is listed as “induced tumor growth delay” and the “T-cell responses upon a single vaccination” value [4] is listed as “strong and frequent T-cell responses”.
In the case of “GLLSALDLV (listed as Homo sapiens) [A2S14, human ARG2 positions 287-295]”, the “T-cell subset that responds (ICS for TNFα and IFNγ)” value [5] is reported as “reaction was from CD4^+ T cells”, the “IFNγ ELISPOT response, screening” value [6] is reported as “significant responses in PBMCs from three or more donors” and the “IFNγ ELISPOT response, validation (repetition)” value [6] is reported as “strong IFNγ ELISPOT responses”.
For “LLSALDLVEV (listed as Homo sapiens) [A2S15, human ARG2 positions 288-297]”, the “IFNγ ELISPOT response, screening” value [6] was “significant responses in PBMCs from three or more donors” and the “IFNγ ELISPOT response, validation (repetition)” value [6] was “did not show significant responses”.
For “SLRGSLSRLLQTRVHSILKKSVHSVAVIGAPFS (listed as Homo sapiens) [A2L2, reference compound]”, the “IFNγ ELISPOT response in 17 HDs” value [6] was “Strong and frequent responses”.
For “NLIVNPRSV (listed as Homo sapiens) [A2S05, human ARG2 positions 84-92]”, the “ex vivo IFNγ ELISPOT response” value (PBMCs) was “strong and significant responses in PBMCs ex vivo”, the “IFNγ ELISPOT reactivity of A2S05-specific T cells to peptide-pulsed HLA-A1+ and HLA-C7+ cell lines” value ([1]; T cells from HD78 and HD93) was “no reactivity” and the “IFNγ ELISPOT reactivity of A2S05-specific T cells to additional HLA-B8+ cell lines” value ([1]; all four T-cell cultures, FM28, FM82, OCI-M2) was “reactivity against three additional HLA-B8^+ cell lines”. The “IFNγ ELISPOT reactivity of A2S05-specific T cells to peptide-pulsed HLA-B8+ FM6” value [1] was “recognition and reactivity activity”, the “HLA restriction of the peptide” value ([1]; recognition and cytolytic activity against HLA-B8+ lines) was “HLA-B8 restriction” and the “specificity of expanded peptide-specific T-cell cultures (ICS for IFNγ and TNF)” value ([5]; four donors, 16-17 days after expansion) was “Highly specific CD8+cultures from all four donors”. For the same sequence, the “T-cell subset that responds (ICS for TNFα and IFNγ)” value [5] was “responses were from CD8^+ T-cells”, the “IFNγ ELISPOT response in 17 HDs” value [6] was “only few responses” and the “donors with statistically significant IFNγ ELISPOT responses” value ([6]; 38 donors with known HLA-A2 status (13 cancer patients, 25 healthy donors)) was 10 out of the 38. For the same sequence, the “IFNγ ELISPOT response, screening” value [6] was “significant responses in PBMCs from three or more donors”, the “IFNγ ELISPOT response, validation (repetition)” value [6] was “strong IFNγ ELISPOT responses” and the “HLA-A2 restriction from donor responses” value ([6]; responses in both HLA-A2+ and HLA-A2- donors) was “not HLA-A2 restricted”.
